Measurements as given in US10570436B2, “Method of analysing a sample including a microorganism of interest” (Spectromics Limited, priority 2014, dated 2020).
In brackets after ≈: the same amount, converted by molar mass.

Columns and labels:
E. coli K12 = test: Minimum inhibitory concentration (MIC), bioscreen spectrophotometer; format: cell-based; settings: Escherichia coli, 24 h incubation at 37° C., bioscreen spectrophotometer at 600 nm
Source text: A range of different concentrations of antibiotic were used to establish the MIC employing a standardised method^17.

[1] = test system: Staphylococcus aureus (Gram-positive); test: Susceptibility/resistance of the selected strain (Table 10); format: cell-based; settings: Experimental Work 4
[2] = test system: Psuedomonas aeruginosa (Gram-negative); test: as above; format: cell-based, Pseudomonas aeruginosa; settings: Experimental Work 4
[3] = test system: Staphylococcus epidermidis (Gram-positive); test: as above; format: cell-based; settings: Experimental Work 4
S. aureus = test: UV-Vis spectroscopy with PC-DFA cluster plot, phenotypic shift after antibiotic exposure vs unexposed control; format: cell-based, Staphylococcus aureus
Source text: (§1) A first stage of data analysis involved the use of principal component analysis (PCA). […] Its aim is to simplify spectral data from a high number of variables into a smaller number of indices (each called a “principal component” or “PC”), simultaneously retaining the original data variance by identifying data patterns. This is achieved as each PC becomes a representation of a group of data with a linear relationship, at the same time being completely uncorrelated to the subsequent PC which corresponds to a different data dimension. PCs are arranged in a descending order in terms of the degree of original data variance they represent with the first PC representing the greatest amount of original data variance. Addition of all the PCs thus yields the entire original data variance, with the first 5 PCs nearly always corresponding to almost 95% of that variance^11,20-22.
In a second stage, discriminant function analysis (DFA), a supervised technique, was used. This chemometrics technique forms a model by taking into account the structure of data collected from the experiment, thus having a priori experimental knowledge. Using this knowledge it then discriminates data into groups (bacterial classes of treatment) based on the PCs obtained from the PCA in an attempt to reduce intra-group variance and widen inter-group variance^23.
For each strain, 3 mL of nutrient broth was inoculated with the overnight grown cells to a final OD600nm=0.1, followed by dispensing the samples as 200 μL aliquots in a sterile Corning 96 well plate (5 biological replicates per strain for each condition). All plates were sealed using sterile Breath-Easy sealing membranes to reduce sample evaporation. The plates were incubated at 37° C. with 200 rpm shaking for 150 min.
The plates were transferred to one of two BioTek Synergy HT microplate readers programmed for 30 min shaking with medium speed at 37° C. followed by a full scan (200-999 nm range) of all the samples with 2 nm resolution.
In general, unless otherwise stated, the material and methods for Experimental Work 4 were the same as for Experimental Work 3, except that a single Thermo Biomate 5 UV-Vis spectrometer across spectral range of 300-800 nm was used for data collection in Experimental Work 4.

P. aeruginosa = test: as above; format: cell-based, Pseudomonas aeruginosa; settings: after both 10 minutes and 30 minutes
Source text: as §1
(§2) In a second stage, discriminant function analysis (DFA), a supervised technique, was used. This chemometrics technique forms a model by taking into account the structure of data collected from the experiment, thus having a priori experimental knowledge. […]
(§3) The plates were transferred to one of two BioTek Synergy HT microplate readers programmed for 30 min shaking with medium speed at 37° C. followed by a full scan (200-999 nm range) of all the samples with 2 nm resolution. […]

S. epidermidis = test: as above; format: cell-based, Staphylococcus epidermidis; settings: after both 10 minutes and 30 minutes
Source text: as §1, §2, §3

Row | SMILES | MIC (E. coli K12) [mg/L] | Sensitive / Resistant to antibiotic [1] | Sensitive / Resistant to antibiotic [2] | Sensitive / Resistant to antibiotic [3] | shift in the cluster plot (PC-DFA) (S. aureus; after 30 minutes exposure) [units] | shift in the cluster plot (PC-DFA) (S. aureus; at 10 minutes exposure) | shift in the cluster plot (PC-DFA) (P. aeruginosa) | shift in the cluster plot (PC-DFA) (S. epidermidis)
1 | CC1(C)S[C@@H]2[C@H](NC(=O)[C@H](N)c3ccccc3)C(=O)N2[C@H]1C(=O)O [Ampicillin] | 10 (≈ 28.6 µM) | Sensitive | Resistant | Resistant | ~1.5 | minimal | minimal | minimal
2 | NCC[C@H](O)C(=O)N[C@@H]1C[C@H](N)[C@@H](O[C@H]2O[C@H](CN)[C@@H](O)[C@H](O)[C@H]2O)[C@H](O)[C@H]1O[C@H]1O[C@H](CO)[C@@H](O)[C@H](N)[C@H]1O [Amikacin] | 10 (≈ 17.1 µM) | – | – | – | – | – | – | –
3 | O=C(O)c1cn(C2CC2)c2cc(N3CCNCC3)c(F)cc2c1=O [Ciprofloxacin] | – | Sensitive | Sensitive | Sensitive | – | – | – | –
4 | COc1cc(Cc2cnc(N)nc2N)cc(OC)c1OC [Trimethoprim] | 300 (≈ 1030 µM) | Resistant | Resistant | Resistant | ~4 | minimal | ~3 units | ~3 units
